Patent publication US20240165244A1 (Prelude Therapeutics Incorporated, priority 2022, published 2024)

Key:
SMARCA2 = molecular target: T1, SMARCA2 (Homo sapiens, UniProt P51531); experiment: SMARCA2 HiBiT degradation assay in HeLa cells; format: cell-based; conditions: 18 hours, highest concentration 10 μM
T1 construct: SMARCA2-HiBiT knock-in Hela monoclonal cell (CS302366); host or cells: HeLa monoclonal cells with heterozygous HiBiT knock-in at the endogenous SMARCA2 locus
Outline: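 Degradation was read as Nano-Glo HiBiT lytic luminescence (30-60 min, RT) and fitted to curves. Compounds in 3-fold dilutions up to 10 μM were applied for 18 h at 37 °C. Cells were 2500/well monoclonal HeLa with a heterozygous C-terminal HiBiT tag on SMARCA2.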

SMARCA4 = molecular target: T2, SMARCA4 (Homo sapiens, UniProt P51532); experiment: SMARCA4 HiBiT degradation assay in HeLa cells; format: cell-based; conditions: 18 hours, highest concentration 10 μM
T2 construct: SMARCA4-HiBiT knock-in Hela monoclonal cell (CS3023226); host or cells: HeLa monoclonal cells with heterozygous HiBiT knock-in at the endogenous SMARCA4 locus
Outline: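 HeLa monoclonal cells with HiBiT knocked into SMARCA4 were seeded at 2500 cells/well, dosed with compound and incubated 18 hours at 37° C. HiBiT signal reported remaining SMARCA4 protein, and values came from curve fitting.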

T1 sequence (P51531 whole entry): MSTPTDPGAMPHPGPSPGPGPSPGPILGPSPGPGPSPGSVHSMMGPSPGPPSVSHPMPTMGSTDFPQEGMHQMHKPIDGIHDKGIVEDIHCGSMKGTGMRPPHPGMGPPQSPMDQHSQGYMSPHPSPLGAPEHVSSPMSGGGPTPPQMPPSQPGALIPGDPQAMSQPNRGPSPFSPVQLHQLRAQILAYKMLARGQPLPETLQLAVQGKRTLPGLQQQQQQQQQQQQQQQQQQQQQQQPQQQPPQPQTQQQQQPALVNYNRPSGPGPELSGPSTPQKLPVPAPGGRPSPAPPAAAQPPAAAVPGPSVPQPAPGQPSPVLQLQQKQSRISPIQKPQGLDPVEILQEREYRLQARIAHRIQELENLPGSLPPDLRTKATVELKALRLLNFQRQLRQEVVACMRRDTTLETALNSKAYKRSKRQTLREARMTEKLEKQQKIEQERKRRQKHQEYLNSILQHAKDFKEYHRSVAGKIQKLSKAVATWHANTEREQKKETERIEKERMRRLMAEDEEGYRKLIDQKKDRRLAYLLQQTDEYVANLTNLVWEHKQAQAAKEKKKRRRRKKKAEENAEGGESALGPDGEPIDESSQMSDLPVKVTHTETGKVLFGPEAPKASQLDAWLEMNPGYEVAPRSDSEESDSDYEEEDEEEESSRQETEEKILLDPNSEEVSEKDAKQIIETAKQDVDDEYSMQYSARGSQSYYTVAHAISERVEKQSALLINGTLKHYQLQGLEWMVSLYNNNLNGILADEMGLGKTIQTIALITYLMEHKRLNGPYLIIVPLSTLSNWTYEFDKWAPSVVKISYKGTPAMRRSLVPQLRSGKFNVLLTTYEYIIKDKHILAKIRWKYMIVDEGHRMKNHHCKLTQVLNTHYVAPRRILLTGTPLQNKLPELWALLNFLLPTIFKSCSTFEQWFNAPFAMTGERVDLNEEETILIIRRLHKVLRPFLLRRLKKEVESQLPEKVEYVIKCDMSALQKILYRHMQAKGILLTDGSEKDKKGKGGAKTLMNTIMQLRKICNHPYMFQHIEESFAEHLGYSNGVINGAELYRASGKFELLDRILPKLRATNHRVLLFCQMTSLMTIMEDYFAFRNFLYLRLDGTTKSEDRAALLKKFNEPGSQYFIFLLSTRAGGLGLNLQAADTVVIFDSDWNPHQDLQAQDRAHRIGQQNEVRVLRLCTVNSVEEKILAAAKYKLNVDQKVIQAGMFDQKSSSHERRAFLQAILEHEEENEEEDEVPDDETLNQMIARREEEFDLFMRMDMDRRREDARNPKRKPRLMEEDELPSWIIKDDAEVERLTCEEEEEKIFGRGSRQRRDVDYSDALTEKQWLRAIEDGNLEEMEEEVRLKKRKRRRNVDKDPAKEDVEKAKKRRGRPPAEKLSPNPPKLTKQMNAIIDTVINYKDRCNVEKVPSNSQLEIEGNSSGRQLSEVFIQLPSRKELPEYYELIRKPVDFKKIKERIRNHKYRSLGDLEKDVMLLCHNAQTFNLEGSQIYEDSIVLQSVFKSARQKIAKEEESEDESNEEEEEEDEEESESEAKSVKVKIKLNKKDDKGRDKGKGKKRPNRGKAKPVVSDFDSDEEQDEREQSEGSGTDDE
T2 sequence (P51532 whole entry): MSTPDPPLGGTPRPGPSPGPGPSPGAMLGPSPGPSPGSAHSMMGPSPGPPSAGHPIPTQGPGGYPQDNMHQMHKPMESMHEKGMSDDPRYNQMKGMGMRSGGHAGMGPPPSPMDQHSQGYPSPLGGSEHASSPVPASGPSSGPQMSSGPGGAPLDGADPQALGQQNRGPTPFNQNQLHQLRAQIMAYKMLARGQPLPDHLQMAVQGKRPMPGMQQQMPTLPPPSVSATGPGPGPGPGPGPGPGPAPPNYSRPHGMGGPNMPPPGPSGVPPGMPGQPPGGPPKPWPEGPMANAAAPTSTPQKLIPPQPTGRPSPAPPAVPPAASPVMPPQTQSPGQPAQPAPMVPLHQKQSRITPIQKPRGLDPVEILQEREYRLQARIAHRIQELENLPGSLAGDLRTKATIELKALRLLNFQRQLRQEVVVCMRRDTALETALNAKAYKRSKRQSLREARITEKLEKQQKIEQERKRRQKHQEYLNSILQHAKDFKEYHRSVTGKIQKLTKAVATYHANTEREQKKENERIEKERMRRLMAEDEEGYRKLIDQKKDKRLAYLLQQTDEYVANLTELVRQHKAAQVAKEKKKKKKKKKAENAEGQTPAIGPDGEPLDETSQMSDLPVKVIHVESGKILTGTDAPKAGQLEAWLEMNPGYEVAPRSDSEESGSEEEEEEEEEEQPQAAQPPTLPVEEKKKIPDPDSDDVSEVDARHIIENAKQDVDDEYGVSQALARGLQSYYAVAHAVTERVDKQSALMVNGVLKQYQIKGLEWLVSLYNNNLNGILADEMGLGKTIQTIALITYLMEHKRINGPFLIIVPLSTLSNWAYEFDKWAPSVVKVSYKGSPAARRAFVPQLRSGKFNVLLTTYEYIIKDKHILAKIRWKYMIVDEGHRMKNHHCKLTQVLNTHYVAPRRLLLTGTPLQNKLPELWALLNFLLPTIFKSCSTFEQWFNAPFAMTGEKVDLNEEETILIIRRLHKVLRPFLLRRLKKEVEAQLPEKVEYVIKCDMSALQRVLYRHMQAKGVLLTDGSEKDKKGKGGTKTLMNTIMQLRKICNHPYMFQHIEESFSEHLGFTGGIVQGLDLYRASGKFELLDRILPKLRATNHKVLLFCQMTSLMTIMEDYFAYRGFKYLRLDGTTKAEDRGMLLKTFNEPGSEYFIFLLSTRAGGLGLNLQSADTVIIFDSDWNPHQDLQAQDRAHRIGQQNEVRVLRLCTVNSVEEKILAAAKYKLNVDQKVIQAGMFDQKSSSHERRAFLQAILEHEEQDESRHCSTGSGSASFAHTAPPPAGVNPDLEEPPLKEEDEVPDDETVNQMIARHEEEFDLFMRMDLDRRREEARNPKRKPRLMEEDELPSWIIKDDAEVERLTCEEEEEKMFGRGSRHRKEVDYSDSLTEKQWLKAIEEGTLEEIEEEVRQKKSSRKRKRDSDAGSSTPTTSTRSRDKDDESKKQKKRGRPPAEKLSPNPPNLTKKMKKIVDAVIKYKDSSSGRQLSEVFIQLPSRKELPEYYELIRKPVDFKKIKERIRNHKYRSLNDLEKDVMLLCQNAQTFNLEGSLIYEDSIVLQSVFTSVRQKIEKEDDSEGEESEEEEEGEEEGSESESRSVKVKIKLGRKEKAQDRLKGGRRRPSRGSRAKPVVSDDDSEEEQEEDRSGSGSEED

SMILES	DC50 (SMARCA2) [nM]	Dmax (SMARCA2) [%]	DC50 (SMARCA4) [nM]	Dmax (SMARCA4) [%]
CC[C@]12CNc3nnc(-c4cccc(F)c4O)cc3N1C[C@H](Oc1cnc(CN3CCN(c4ccc5c(c4)CN([C@H]4CCC(=O)NC4=O)C5=O)CC3)c(C)c1)C2 [Example 74, (S)-3-(5-(4-((5-(((6aS,8R)-6a-ethyl-2-(3-fluoro-2-hydroxyphenyl)-5,6,6a,7,8,9-hexahydropyrrolo[1′,2′:4,5]pyrazino[2,3-c]pyridazin-8-yl)oxy)-3-methylpyridin-2-yl)methyl)piperazin-1-yl)-1-oxoisoindolin-2-yl)piperidine-2,6-dione]	< 100	> 75	< 100	> 75
Cc1nc(O[C@H]2CN3c4cc(-c5cccc(F)c5O)nnc4NC[C@@]3(C)C2)ncc1CN1CCC(c2ccc3c(c2)C(=O)N([C@H]2CCC(=O)NC2=O)C3)CC1 [Example 77, (S)-3-(6-(1-((2-(((6aR,8R)-2-(3-fluoro-2-hydroxyphenyl)-6a-methyl-5,6,6a,7,8,9-hexahydropyrrolo[1′,2′:4,5]pyrazino[2,3-c]pyridazin-8-yl)oxy)-4-methylpyrimidin-5-yl)methyl)piperidin-4-yl)-1-oxoisoindolin-2-yl)piperidine-2,6-dione]	< 100	> 75	> 1000	< 50
C[C@]12CNc3nnc(-c4cccc(F)c4O)cc3N1C[C@H](Oc1cnc(CN3CCN(c4ccc5c(c4)C(=O)N([C@H]4CCC(=O)NC4=O)C5)CC3)cn1)C2 [Example 79, (S)-3-(6-(4-((5-(((6aS,8R)-2-(3-fluoro-2-hydroxyphenyl)-6a-methyl-5,6,6a,7,8,9-hexahydropyrrolo[1′,2′:4,5]pyrazino[2,3-c]pyridazin-8-yl)oxy)pyrazin-2-yl)methyl)piperazin-1-yl)-1-oxoisoindolin-2-yl)piperidine-2,6-dione]	< 100	> 75	< 100	50 to 75

Results, then the compound that gave them:

DC50 (SMARCA2) [nM]	Dmax (SMARCA2) [%]	DC50 (SMARCA4) [nM]	Dmax (SMARCA4) [%]	SMILES
< 100	> 75	100 to 1000	< 50	Cc1nc(O[C@H]2CN3c4cc(-c5cccc(F)c5O)nnc4NC[C@@]3(C)C2)nc(C)c1CN1CCN(c2ccc3c(c2)C(=O)N([C@H]2CCC(=O)NC2=O)C3)CC1 [Example 75, (S)-3-(6-(4-((2-(((6aR,8R)-2-(3-fluoro-2-hydroxyphenyl)-6a-methyl-5,6,6a,7,8,9-hexahydropyrrolo[1′,2′:4,5]pyrazino[2,3-c]pyridazin-8-yl)oxy)-4,6-dimethylpyrimidin-5-yl)methyl)piperazin-1-yl)-1-oxoisoindolin-2-yl)piperidine-2,6-dione]
< 100	> 75	< 100	> 75	C[C@]12CNc3nnc(-c4cccc(F)c4O)cc3N1C[C@H](Oc1cc(C#N)c(CN3CCN(c4ccc5c(c4)C(=O)N([C@H]4CCC(=O)NC4=O)C5)CC3)cn1)C2 [Example 76, 5-((4-(2-((S)-2,6-dioxopiperidin-3-yl)-3-oxoisoindolin-5-yl)piperazin-1-yl)methyl)-2-(((6aS,8R)-2-(3-fluoro-2-hydroxyphenyl)-6a-methyl-5,6,6a,7,8,9-hexahydropyrrolo[1′,2′:4,5]pyrazino[2,3-c]pyridazin-8-yl)oxy)isonicotinonitrile]
< 100	> 75	> 1000	< 50	Cc1nc(O[C@H]2CN3c4cc(-c5cccc(F)c5O)nnc4NC[C@@]3(C)C2)nc(C)c1CN1CCC(c2ccc3c(c2)C(=O)N([C@H]2CCC(=O)NC2=O)C3)CC1 [Example 78, (S)-3-(6-(1-((2-(((6aR,8R)-2-(3-fluoro-2-hydroxyphenyl)-6a-methyl-5,6,6a,7,8,9-hexahydropyrrolo[1′,2′:4,5]pyrazino[2,3-c]pyridazin-8-yl)oxy)-4,6-dimethylpyrimidin-5-yl)methyl)piperidin-4-yl)-1-oxoisoindolin-2-yl)piperidine-2,6-dione]
